Results reported in patent US9447106B2, “Substituted pyrazolo[1,5-a]pyrimidines as bruton's tyrosine kinase modulators” (Beigene, Ltd., priority 2013, dated 2016).
pIC50: −log10 of the molar value. Where a name gives a salt, the structure may show the parent alone. Read-outs that look alike come from different tables or passages of the source.

What was measured:
[1] = target: phosphorylated Btk at Tyr223 in Ramos cells (Homo sapiens (Human), UniProt Q06187); test: Btk pY223 cellular assay (HTRF) in Ramos cells; assay type: cell-based; conditions: 1 hour compound incubation, pervanadate or Na3VO4 stimulation
Sequence of phosphorylated Btk at Tyr223 in Ramos cells (Q06187 whole entry): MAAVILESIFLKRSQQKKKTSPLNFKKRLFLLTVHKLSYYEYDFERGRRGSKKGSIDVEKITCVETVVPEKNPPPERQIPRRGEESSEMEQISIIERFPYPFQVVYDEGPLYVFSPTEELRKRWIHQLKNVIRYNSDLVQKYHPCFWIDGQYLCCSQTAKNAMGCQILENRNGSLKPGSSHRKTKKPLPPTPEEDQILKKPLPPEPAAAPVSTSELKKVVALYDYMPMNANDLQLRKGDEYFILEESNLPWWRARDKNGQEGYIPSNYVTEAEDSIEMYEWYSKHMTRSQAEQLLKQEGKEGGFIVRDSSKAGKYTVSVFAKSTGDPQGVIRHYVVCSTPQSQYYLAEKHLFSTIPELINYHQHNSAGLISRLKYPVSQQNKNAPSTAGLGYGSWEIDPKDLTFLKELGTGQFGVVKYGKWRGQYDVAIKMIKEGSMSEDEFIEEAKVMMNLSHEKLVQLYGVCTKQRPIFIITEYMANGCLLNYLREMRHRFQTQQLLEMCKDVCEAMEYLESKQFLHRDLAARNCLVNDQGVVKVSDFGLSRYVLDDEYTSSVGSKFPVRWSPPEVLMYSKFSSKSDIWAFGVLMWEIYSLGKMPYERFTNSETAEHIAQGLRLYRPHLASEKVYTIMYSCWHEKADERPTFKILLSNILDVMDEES
Experimental: Btk pY223 cellular assay is a HTRF based assay intended to determine the endogenous levels of phosphorylated Btk at Tyr223.
Briefly, Ramos cells were serum starved in 0.5% FBS-containing RPMI1640 for 2 hours. Following starvation, the cells were incubated with compounds to be detected at various concentrations in a CO2 incubator for 1 hour. After incubation, cells were stimulated with 1 mM pervanadate (PV) or Na3VO4 (OV) for 20 min. Then, the cells were spinned down and lysed with 1× lysis buffer at RT for 10 min (4× lysis buffer supplied in the kit). During the incubation, 1× antibody mix was prepared by diluting anti-Btk-d2 and anti-pBtk-K in detection buffer (supplied in the kit). […] After that, 18 ul of cell lysate was transferred to the assay plate pre-loaded with antibody solution. After mixing gently and spinning briefly, the plate was sealed up and kept in dark at RT for 18 hours. […] IC50 values were calculated with GraphPad Prism software using the sigmoidal dose-response function.

Recombinant Btk = Recombinant Btk (Homo sapiens (Human), UniProt Q06187); test: Btk kinase assay (TR-FRET); conditions: for IC50: recombinant Btk, 1 hour pre-incubation, ATP at Km
Sequence of Recombinant Btk (Q06187 whole entry): as above

SMILES | IC50 [1] [nM] | other results
C=CC(=O)N1CC[C@H]2[C@H](CNc3c(C(N)=O)c(-c4ccc(Oc5ccccc5)cc4)nn32)C1 (relative stereo) [Compound 30, Cis-7-Acryloyl-2-(4-phenoxyphenyl)-4,5,5a,6,7,8,9,9a-octahydro pyrazolo[1,5-a]pyrido[3,4-e]pyrimidine-3-carboxamide and Cis-7-acryloyl-2-(4-phenoxyphenyl)-4,4a,5,6,7,8,8a,9-octahydropyrazolo[1,5-a]pyrido[4,3-d]pyrimidine-3-carboxamide] | 4 | pIC50 (Recombinant Btk): 9.00
CN(C)C/C=C/C(=O)N1CCC(C2CCNc3c(C(N)=O)c(-c4ccc(Oc5ccccc5)cc4)nn32)CC1 (single isomer, unassigned) [Compound 171, (R or S) (E)-7-(1-(4-(Dimethylamino)but-2-enoyl)piperidin-4-yl)-2-(4-phenoxyphenyl)-4,5,6,7-tetrahydropyrazolo-[1,5-a]pyrimidine-3-carboxamide] | 10.9 | pIC50 (Recombinant Btk): 8.85
C=CC(=O)Nc1ccccc1C1CCNc2c(C(N)=O)c(-c3ccc(OCc4ccccc4)cc3)nn21 (stereo not drawn) [Compound 10, 7-(2-Acrylamidophenyl)-2-(4-(benzyloxy)phenyl)-4,5,6,7-tetrahydro pyrazolo[1,5-a]pyrimidine-3-carboxamide] | 8 | IC50 (Recombinant Btk; read-out: IC50 (nM) Btk): 1.5 nM
C=CC(=O)N1CC[C@H]2Nc3c(C(N)=O)c(-c4ccc(Oc5ccccc5)cc4)nn3C[C@H]2C1 [Compound 31] |  | IC50 (Recombinant Btk; read-out: IC50 (nM) Btk): 15 nM
C=CC(=O)Nc1ccc2c(c1)CCNc1c(C(N)=O)c(-c3ccc(Oc4ccccc4)cc3)nn1-2 [Compound 72, 8-Acrylamido-2-(4-phenoxyphenyl)-5,6-dihydro-4H-benzo[f]pyrazolo[1,5-a][1,3]diazepine-3-carboxamide] | 10.5 | IC50 (Recombinant Btk; IC50 (nM) Btk): 4.1 nM
COc1cc(-c2nn3c(c2C(N)=O)NCCC3c2ccccc2NC(=O)/C=C/CN(C)C)ccc1C (stereo not drawn) [Compound 165, (E)-7-(2-(4-(Dimethylamino)but-2-enamido)phenyl)-2-(3-methoxy-4-methylphenyl)-4,5,6,7-tetrahydropyrazolo[1,5-a]pyrimidine-3-carboxamide] | 19.1 | 
C=CC(=O)Nc1ccccc1C1CCNc2c(C(N)=O)c(-c3cc(Cl)c(OC)c(Cl)c3)nn21 (stereo not drawn) [Compound 169, 7-(2-Acrylamido-phenyl)-2-(3,5-dichloro-4-methoxyphenyl)-4,5,6,7-tetrahydropyrazolo-[1,5-a]pyrimidine-3-carboxamide] | 7 | 
NC(=O)c1c(-c2ccc(Oc3ccccc3)cc2)nn2c1NCCC2C1CCN(C(=O)/C=C/CN2CCCCC2)CC1 (stereo not drawn) [Compound 170, (E)-2-(4-Phenoxyphenyl)-7-(1-(4-(piperidin-1-yl)but-2-enoyl)piperidin-4-yl)-4,5,6,7-tetrahydropyrazolo[1,5-a]pyrimidine-3-carboxamide] | 33.7 | 
C=CC(=O)N1CC(C2(C)CCNc3c(C(N)=O)c(-c4ccc(Oc5ccccc5)cc4)nn32)C1 (stereo not drawn) [Compound 175, 7-(1-Acryloylazetidin-3-yl)-7-methyl-2-(4-phenoxyphenyl)-4,5,6,7-tetrahydropyrazolo-[1,5-a]pyrimidine-3-carboxamide] | 17.6 | 
NC(=O)c1c(-c2ccc(Oc3ccccc3)cc2)nn2c1NCC[C@H]2C1CCN(C(=O)CCCl)CC1 [Compound 177, (S)-7-(1-(3-chloropropanoyl)piperidin-4-yl)-2-(4-phenoxy-phenyl)-4,5,6,7-tetrahydropyrazolo-[1,5-a]pyrimidine-3-carboxamide] | 3.9 | 
NC(=O)c1c(-c2ccc(Oc3ccccc3)cc2)nn2c1NCC[C@H]2C1CCN(C(=O)/C=C/CN2CCN(CCNC(=O)CCCC(=O)NCCCOCCOCCOCCCNC(=O)CCCC[C@H]3SC[C@H]4NC(=O)N[C@H]43)CC2)CC1 [Compound 178, N1-(2-(4-((E)-4-(4-((S)-3-carbamoyl-2-(4-phenoxyphenyl)-4,5,6,7-tetrahydropyrazolo[1,5-a]pyrimidin-7-yl)piperidin-1-yl)-4-oxobut-2-en-1-yl)piperazin-1-yl)ethyl)-N5-(15-oxo-19-((3aR,4R,6aS)-2-oxohexahydro-1H-thieno[3,4-d]imidazol-4-yl)-4,7,10-trioxa-14-azanonadecyl)glutaramide trifluoroacetate] | > 1000 | pIC50 (Recombinant Btk): 7.34
CC#CC(=O)N1CC(C2CCNc3c(C(N)=O)c(-c4ccc(Oc5ccccc5)cc4)nn32)C1 (stereo not drawn) [Compound 184, 7-(1-(But-2-ynoyl)azetidin-3-yl)-2-(4-phenoxyphenyl)-4,5,6,7-tetrahydropyrazolo-[1,5-a]pyrimidine-3-carboxamide] | 6.7 | 
CCC#CC(=O)N1CCC([C@@H]2CCNc3c(C(N)=O)c(-c4ccc(Oc5ccccc5)cc4)nn32)CC1 [Compound 186, (S)-7-(1-(Pent-2-ynoyl)piperidin-4-yl)-2-(4-phenoxyphenyl)-4,5,6,7-tetrahydropyrazolo-[1,5-a]pyrimidine-3-carboxamide] | 10.3 | 
NC(=O)c1c(-c2ccc(Oc3ccccc3)cc2)nn2c1NCC[C@H]2C1CCN(C(=O)C#CCN2CCCC2)CC1 [Compound 187, (S)-2-(4-Phenoxyphenyl)-7-(1-(4-(pyrrolidin-1-yl)but-2-ynoyl)piperidin-4-yl)-4,5,6,7-tetrahydropyrazolo-[1,5-a]pyrimidine-3-carboxamide] | 7.3 | 
CN(C)CC#CC(=O)N1CCC([C@@H]2CCNc3c(C(N)=O)c(-c4ccc(Oc5ccccc5)cc4)nn32)CC1 [Compound 188, (S)-7-(1-(4-(Dimethylamino)but-2-ynoyl)piperidin-4-yl)-2-(4-phenoxyphenyl)-4,5,6,7-tetrahydropyrazolo-[1,5-a]pyrimidine-3-carboxamide] | 8.5 | 
C=CC(=O)Nc1ccccc1C1CCNc2c(C(N)=O)c(-c3ccc(F)c(Cl)c3)nn21 (stereo not drawn) [Compound 196, 7-(2-Acrylamidophenyl)-2-(3-chloro-4-fluorophenyl)-4,5,6,7-tetrahydropyrazolo-[1,5-a]pyrimidine-3-carboxamide] | 2 | 
